{
  "source": "patent US11576985B2",
  "about": "“Contrast imaging agent with dissolved gas-evolving fluid” (BAYER HEALTHCARE LLC, priority 2015, dated 2023)",
  "key": {"[1]": {"settings": "humans, compared with rats; cited from earlier work"}, "[2]": {"settings": "rats; cited from earlier work"}, "[3]": {"test": "Amount of xenon gas dissolved in water, blood and oil with increasing pressure, computed by Henry's Law", "type": "physicochemical", "text": "Dissolution of xenon gas in liquid, such as saline or other medical fluid, including an iodine X-ray contrast solution, provides a diagnostic contrast composition with a variety of available concentrations of xenon (mg) per mL of liquid based on a number of parameters, including pressure or presence of one or more concentration-augmenting compositions. For example, the concentration of the gas-evolving fluid in the carrier fluid may be dependent on pressure and temperature. In certain circumstances, it may be desirable to augment the concentration of the gas-evolving fluid beyond the carrying capacity of the carrier fluid at, for example, standard temperature and pressure. For example, according to Henry's Law, the amount of a gas dissolved in a liquid is proportional to the partial pressure of the gas in the volume of the liquid at a given temperature. Table 2 below uses the coefficients from Table 1 above to compute the amount of xenon gas that is dissolved in water, blood, and oil based on increasing pressure (from 1 atm to 30 atm)."}, "[4]": {"settings": "37 C., cited from earlier work"}},
  "note": "Read-outs that look alike come from different tables or passages of the source.",
  "data": [
    {"compound": "FC(F)(F)C(F)(F)C(F)(F)C(F)(F)C(F)(F)C(F)(F)C(F)(F)C(F)(F)Br", "note": "[Perfluorooctylbromide]", "values": [
      {"measurement": "retention half-life", "setting": "[1]", "value": "shorter retention half-life in humans"},
      {"measurement": "retention half-life", "setting": "[2]", "value": "about 6 hours"}
    ]},
    {"compound": "[Xe]", "note": "[xenon]", "values": [
      {"measurement": "Amount of Gas Dissolved in the Liquid", "setting": "[3]; blood, 1 atm", "value": 0.7603, "unit": "mgmXe/ml"},
      {"measurement": "Amount of Gas Dissolved in the Liquid", "setting": "[3]; blood, 2 atm", "value": 1.521, "unit": "mgmXe/ml"},
      {"measurement": "Amount of Gas Dissolved in the Liquid", "setting": "[3]; blood, 4 atm", "value": 3.041, "unit": "mgmXe/ml"},
      {"measurement": "Amount of Gas Dissolved in the Liquid", "setting": "[3]; blood, 5 atm", "value": 3.801, "unit": "mgmXe/ml"},
      {"measurement": "Amount of Gas Dissolved in the Liquid", "setting": "[3]; blood, 30 atm", "value": 22.81, "unit": "mgmXe/ml"},
      {"measurement": "Amount of Gas Dissolved in the Liquid", "setting": "[3]; oil, 1 atm", "value": 9.942, "unit": "mgmXe/ml"},
      {"measurement": "Amount of Gas Dissolved in the Liquid", "setting": "[3]; oil, 2 atm", "value": 19.88, "unit": "mgmXe/ml"},
      {"measurement": "Amount of Gas Dissolved in the Liquid", "setting": "[3]; oil, 4 atm", "value": 39.77, "unit": "mgmXe/ml"},
      {"measurement": "Amount of Gas Dissolved in the Liquid", "setting": "[3]; oil, 5 atm", "value": 49.71, "unit": "mgmXe/ml"},
      {"measurement": "Amount of Gas Dissolved in the Liquid", "setting": "[3]; oil, 30 atm", "value": 298.2589, "unit": "mgmXe/ml"},
      {"measurement": "Amount of Gas Dissolved in the Liquid", "setting": "[3]; saline, 1 atm", "value": 0.4971, "unit": "mgmXe/ml"},
      {"measurement": "Amount of Gas Dissolved in the Liquid", "setting": "[3]; saline, 2 atm", "value": 0.9942, "unit": "mgmXe/ml"},
      {"measurement": "Amount of Gas Dissolved in the Liquid", "setting": "[3]; saline, 4 atm", "value": 1.988, "unit": "mgmXe/ml"},
      {"measurement": "Amount of Gas Dissolved in the Liquid", "setting": "[3]; saline, 5 atm", "value": 2.485, "unit": "mgmXe/ml"},
      {"measurement": "Amount of Gas Dissolved in the Liquid", "setting": "[3]; saline, 30 atm", "value": 14.91, "unit": "mgmXe/ml"},
      {"measurement": "bunsen constant", "setting": "[4]; olive oil", "value": 1.7},
      {"measurement": "bunsen constant", "setting": "[4]; seawater (*1.3 of pure water)", "value": 0.1105},
      {"measurement": "bunsen constant", "setting": "[4]; water", "value": 0.085}
    ]}
  ]
}
